From patent US20130101996A1, “DETECTION METHOD AND APPARATUS OF ACTIVATED NEUTROPHILS” (SYSMEX CORPORATION, priority 2011, published 2013)

Legend:
Assay type in all cases: cell-based, human
neutrophils [1] = experiment: Flow cytometry (FACSCalibur) of stimulated polymorphonucleocytes, 4DS-SSC scattergram; settings: PMA 0.32 nM or fMLP 50 nM, room temperature 10 min; versus non-stimulated control
Description: Peripheral blood is extracted from an able-bodied person by using a heparin blood collection tube for hematologic examination. A polynuclear sample of purity 90% or more is obtained by centrifugation of the obtained blood using a monopolymer separation solution (Dainippon Sumitomo Pharma Co., Ltd.) at room temperature. This operation is performed according to instructions of the manufacturer (Dainippon Sumitomo Pharma Co., Ltd.). Then, the obtained polymorphonucleocytes (2×10^5) are suspended in a 1 mL of 0.1% bovine serum albumin (phosphate buffered saline). To stain neutrophils of polymorphonucleocytes, CD16 (antihuman CD16 Fc gamma receptor III (clone: DJ130c).mouse monoclonal antibody/neutrophil specific antibody for RPE labeled flow cytometry; Dako) (final concentration: 750 μg/L) fluorescence-labeled by phycoerythrin (PE) is added to the obtained suspension for incubation at room temperature for 10 min. Next, APF (Aminophenyl Fluorescein, Sekisui Medical Co., Ltd.) (final concentration: 10 μM) as a reagent for ROS detection is added to the suspension, which is left still at room temperature for 30 min. […]

neutrophils [2] = experiment: Confocal laser microscope observation of APF fluorescence (ROS production) in stimulated neutrophils; settings: PMA as stimulating substance, APF 10 μM; confocal laser microscopes
Description: A sample containing activated neutrophils is prepared from peripheral blood extracted from an able-bodied person in the same manner as in Example 1. However, only PMA is used as a stimulating substance of neutrophils. A sample (−APF) not treated by APF and a stimulating substance and a sample (+APF) not treated by a stimulating substance are prepared as control samples.
Each prepared sample is moved to a glass bottom dish coated with poly-L-lysine to observe neutrophils in the sample by confocal laser microscopes (IX81 (manufactured by Olympus Corporation), CSU-X1 (manufactured by Yokogawa Electric Corporation), and ImagEM (manufactured by Hamamatsu Photonics K. K.)).

[3] = test system: neutrophils in whole blood; experiment: Whole blood measured by automated blood cell counter XE-2100, DIFF scattergram of 4DS-SSC; settings: PMA 0.32 nM, room temperature 10 min; whole blood (EDTA-2K)
Description: Peripheral blood is extracted from an able-bodied person by using a blood collection tube containing EDTA-2K for hematologic examination. PMA (manufactured by Sigma-Aldrich Co., LLC.) (final concentration: 0.32 nM) is added to the obtained blood, which is left still at room temperature for 10 min. Whole blood to which PMA is not added is used as a control sample.
The prepared sample is supplied to the automated blood cell counter XE-2100 (manufactured by Sysmex Corporation) for measurement to acquire a DIFF scattergram of 4DS-SSC. The automated blood cell counter XE-2100 automatically treats the sample prepared as described above by using Stromatolyser-4DL and Stromatolyser-4DS (manufactured by Sysmex Corporation) to prepare a measurement sample.

neutrophils [4] = experiment: Transmission electron microscope observation of stimulated neutrophils; settings: PMA or fMLP added, fixed by 2.5% glutaraldehyde
Description: A sample containing activated neutrophils is prepared from peripheral blood extracted from an able-bodied person in the same manner as in Example 1. Also, a sample not treated by a stimulating substance is prepared as a control sample.
The samples are fixed by 2.5% glutaraldehyde to prepare electron microscope samples according to the method described in the literature by the inventors (Mari Kono et al. (2009), ‘Morphological definition of CD71 positive reticulocytes by various staining techniques and electron microscopy compared to reticulocytes detected by an automated hematology analyzer’, Clinica Chimica Acta, Vol. 404, p105-110.). The obtained samples are analyzed by using a transmission electron microscope (Hitachi H-7500).

## CCCCCCCCCCCCCC(=O)O[C@@H]1[C@@H](C)[C@@]2(O)[C@@H](C=C(CO)C[C@]3(O)C(=O)C(C)=C[C@@H]23)[C@@H]2C(C)(C)[C@]12OC(C)=O [PMA, Phorbol 12-myristate 13-acetate]
Neutrophils [1]
  appearance region of neutrophils in 4DS-SSC scattergram: neutrophils appear on other regions
Neutrophils [2]
  ROS production capability of neutrophils (APF derived fluorescence): enhanced
[3]
  appearance of activated neutrophils in 4DS-SSC scattergram, whole blood: activated neutrophils appear between a cluster containing neutrophils and a cluster containing eosinophils
Neutrophils [4]
  changes of form of neutrophils (degranulation, vacuole in cytoplasm): many neutrophils in which degranulation and vacuole are produced in cytoplasm are observed

## N-Formyl-Met-Leu-Phe [fMLP]
Neutrophils [1]
  appearance region of neutrophils in 4DS-SSC scattergram: neutrophils appear on other regions
Neutrophils [4]
  changes of form of neutrophils (degranulation, vacuole in cytoplasm): many neutrophils in which degranulation and vacuole are produced in cytoplasm are observed
